Source: patent publication US12286423B2, “Antiviral 1,3-di-oxo-indene compounds” (Novartis AG, priority 2020, dated 2025)

Key:
Format in all cases: cell-based
HRV A16 = HRV A16 CPE inhibition assay; details: Human rhinovirus sp.; HRV A16, cytopathic effect inhibition
Procedure: (§1) Bioactivity of the Compounds of the Invention was Determined Using the Following Methods. Determination of Drug Efficacy Against Picornaviruses Using Cytopathic Effect (CPE) Inhibition Assay
(§2) In the assay, HeLa (human cervical cancer cells), MRC-5 (human fetal lung fibroblast cells), and RD cells (derived from human rhabdomyosarcoma) were employed. For comparison, ribavirin (Riv), Pleconaril (pleco), and […] (BTA) were used as controls. Reagents were dissolved at a concentration of 10-40 mg/ml in 100% dimethyl sulfoxide (DMSO). Water-soluble reagents were dissolved in PBS (−) solution and stored at −20° C. On the day of the experiment, they were used in 3 fold to 5 fold concentrations in such a manner that the concentration of dimethyl sulfoxide in each well was between 0.5% and 1%.
(§3) Pharmaceutical efficacy was determined using a virus-induced cytopathic effect (CPE) inhibition assay. In this regard, after cells suitable for viruses were grown in 96-well plates, dilutions of viruses in DME supplemented with 2% FBS (DME/2% FBS) or MEM supplemented with 2% FBS (MEM/2% FBS) were inoculated in an amount of […] with a concentration corresponding to 100 CCID50 (50% cell culture infective dose) into each well of the plates, and incubated for 30 min-1 hr at 33° C. or 37° C. to allow the viruses to adsorb onto the cells. The culture medium was removed before aliquots of drug dilutions with various concentrations were added in an amount of 100 μl to each well. While HRV (human rhinovirus) was grown at 33° C., the other viruses were incubated in a 37° C. CO2 incubator for 2-3 days. Alternatively, the cells were cultured for 2-3 days without removal of the medium after they were added with 50 μl of each drug dilution having a 2-fold higher concentration and then with 50 μl of the virus dilution. Viruses were incubated in host HeLa cells at 37° C. for 2-3 days in DME/2% or MEM/2% FBS.
(§4) For HeLa cells, the drugs were measured for EC50 (50% maximal effective concentration), which is the concentration of a drug inducing a response halfway between the baseline and maximum, using an MTT assay. With regard to RD and MRC-5 cells, CPE was determined using FDA (Fluorescein diacetate) or MTT. In order to determine the effect of drug toxicity on efficacy results, at the time of inoculation with the virus, mock-infection was also included. A virus-free medium was added to a cell culture, which was then subjected to the same treatment as the mock-infected cells inoculated with the virus. That is, the medium was removed after one hour of incubation, and dilutions of drugs in the medium were added once more. Following incubation for 2-3 days, the cells were observed under a microscope and the drugs were determined for CC50 (50% cytotoxic concentration) at which 50% of the cells were killed, using an MTT assay in which counts of viable cells in mock-infected wells containing drugs were compared to those of viable cells in control wells containing no drugs. In an FDA hydrolysis assay, FDA was added to each well after removal of the medium, and incubated for 20-30 min before fluorescence intensity was measured using a spectrofluorometer to determine CPE in the same manner as in MTT.
(§5) In addition, antiviral effects can be calculated using Mathematical Formula 2 below: Antiviral Effect=[A(Drug/Virus)−A(Virus Control)/A(Cell control)−A(Virus Control)]
(§6) If the survival rate is 100%, its antiviral effect is 100% whereas if the survival rate is 0%, its antiviral effect is none. […]
(§7) Specifically, cells grown to confluence in 96-well plates were infected with 100 50% cell culture infected doses (CCID50) of virus. After an adsorption period of 2 hrs at 37° C., the virus was removed and serial dilutions of the compounds were added. […] After removal of the medium, 90 μl of a culture medium and 10 μl of MTS-phenazine methosulfate (Promega, Leiden, The Netherlands) were added to each well. […]

HRV A29 = HRV A29 CPE inhibition assay; details: Human rhinovirus sp.; HRV A29, cytopathic effect inhibition
Procedure: as §1, §2, §3, §4, §5, §6, §7

HRV A1B = HRV A1B CPE inhibition assay; details: Human rhinovirus sp., cytopathic effect inhibition, read-out: HRV A1B_CPE (EC50 μM)
Procedure: as §1, §2, §3, §4, §5, §6, §7

HRV B14 = HRV B14 CPE inhibition assay; details: Human rhinovirus sp.; HRV B14, cytopathic effect inhibition
Procedure: as §1, §2, §3, §4, §5, §6, §7

C15_C3 REPLICON = assay: C15_C3 replicon assay
[1] = Cytotoxicity (CC50) in mock-infected cells, MTT assay; details: human, HeLa cells (mock-infected), 50% cytotoxic concentration, read-out: CYTOTOX (CC50 μM)
Procedure: as §4
That is, the survival rate (% survival) of mock-infected cells for cytotoxicity measurement was calculated using the Mathematical Formula 1 below: Cell Drug=Survival by [A(Drug)−A(Background solution)/A(Cell control)−A(Background×100% Solution)]
While 100% cell survival means no cytotoxicity of the drug, the highest cytotoxicity is reflected by 0% cell survival. The 50% cytotoxic concentration was defined as the concentration required to reduce the cell number by 50%. This concentration of the drug is represented as CC50. Higher values mean lower cytotoxicity. […]
In Mathematical Formulae 3 and 4 above, • OD (CC) represents the OD of the background cell culture that is neither induced by a virus nor treated by chemical, • OD (VC) represents the OD of the control cell culture that is induced by a virus but not treated by chemical, • OD (Virus+Compound) represents the OD of the cell culture infected by a virus that has been treated with a concentrated compound, • OD (Compound) represents the OD of the cell culture that has been treated with a concentrated compound only, and • OD (Blank) represents the OD of the well to which only the cell culture has been added.
The effective concentration (EC50) represents the concentration of a drug at which 50% of cells are allowed to survive by CPE of an induced virus, and the cytotoxicity concentration (CC50) represents the concentration of a drug at which a compound has killed 50% of cells, and they were calculated by the logarithmic interpolation.

Compound | EC50 (HRV A16) | EC50 (HRV A29) | EC50 (HRV A1B) | EC50 (HRV B14) | EC50 (C15_C3 REPLICON) | CC50 [1]
Cc1cc(S(=O)(=O)N2CCN(C)CC2)[nH]c1C(=O)NC12C(=O)c3c(N)cccc3C1(O)Oc1cc([C@H]3C[C@H]3C)ccc12 (stereo partly drawn) [Example 24, N-(1-amino-4b-hydroxy-7-((1S,2R)-2-methylcyclopropyl)-10-oxo-4b,10-dihydro-9bH-indeno[1,2-b]benzofuran-9b-yl)-3-methyl-5-((4-methylpiperazin-1-yl)sulfonyl)-1H-pyrrole-2-carboxamide] | 0.039 µM | 0.037 µM | 0.016 µM | 0.016 µM | 0.34 µM | 28.4 µM
Cc1cc(S(C)(=O)=O)[nH]c1C(=O)NC12C(=O)c3c(N)cccc3C1(O)Oc1cc([C@@H]3C[C@@H]3C)ccc12 (stereo partly drawn) [Example 26, N-(1-amino-4b-hydroxy-7-((1R,2S)-2-methylcyclopropyl)-10-oxo-4b,10-dihydro-9bH-indeno[1,2-b]benzofuran-9b-yl)-3-methyl-5-(methylsulfonyl)-1H-pyrrole-2-carboxamide] | 0.093 µM | 0.274 µM | 0.17 µM | 0.016 µM | 8.37 µM | 37.1 µM
C[C@H](c1ccc2c(c1)O[C@]1(O)c3cccc(N)c3C(=O)[C@]21NC(=O)c1cccc(O)n1)C1CC1 [Example 3, N-((4bR,9bR)-1-amino-7-((S)-1-cyclopropylethyl)-4b-hydroxy-10-oxo-4b,10-dihydro-9bH-indeno[1,2-b]benzofuran-9b-yl)-6-hydroxypicolinamide] | 0.057 µM | 0.02 µM | 0.033 µM | 0.016 µM | 4.81 µM | 32.3 µM
Cc1cc(S(C)(=O)=O)[nH]c1C(=O)NC12C(=O)c3c(N)cccc3C1(O)Oc1cc(C3C[C@H]3C)ccc12 (stereo in doubt) [Example 21, N-(1-amino-4b-hydroxy-7-((1S,2R)-2-methylcyclopropyl)-10-oxo-4b,10-dihydro-9bH-indeno[1,2-b]benzofuran-9b-yl)-3-methyl-5-(methylsulfonyl)-1H-pyrrole-2-carboxamide] | 0.026 µM | 0.074 µM | 0.07 µM | 0.016 µM | 2.91 µM | 37.3 µM
Cc1cc(S(=O)(=O)N2CCN(C)CC2)[nH]c1C(=O)NC12C(=O)c3c(N)cccc3C1(O)Oc1cc(C(C)C)ccc12 (centres unmarked) [Example 13, N-(1-amino-4b-hydroxy-7-isopropyl-10-oxo-4b,10-dihydro-9bH-indeno[1,2-b]benzofuran-9b-yl)-3-methyl-5-((4-methylpiperazin-1-yl)sulfonyl)-1H-pyrrole-2-carboxamide] | 0.027 µM | 0.05 µM | 0.016 µM | 0.016 µM | 0.682 µM | 32.1 µM
Cc1c(S(C)(=O)=O)c[nH]c1C(=O)N[C@]12C(=O)c3c(N)cccc3[C@@]1(O)Oc1cc([C@H]3C[C@@H]3C)ccc12 [Example 28, N-((4bR,9bR)-1-amino-4b-hydroxy-7-((1S,2S)-2-methylcyclopropyl)-10-oxo-4b,10-dihydro-9bH-indeno[1,2-b]benzofuran-9b-yl)-3-methyl-4-(methylsulfonyl)-1H-pyrrole-2-carboxamide] | 0.16 µM | 0.045 µM | 0.037 µM | 0.016 µM | 1.85 µM | 19.8 µM
C[C@@H](c1ccc2c(c1)O[C@]1(O)c3cccc(N)c3C(=O)[C@]21NC(=O)c1cccc(O)n1)C1CC1 [Example 8, N-((4bR,9bR)-1-amino-7-((R)-1-cyclopropylethyl)-4b-hydroxy-10-oxo-4b,10-dihydro-9bH-indeno[1,2-b]benzofuran-9b-yl)-6-hydroxypicolinamide] | 0.068 µM | 0.035 µM | 0.031 µM | 0.016 µM | 5.33 µM | 35 µM
Cc1c(C(=O)N[C@]23C(=O)c4c(N)cccc4[C@@]2(O)Oc2cc([C@@H](C)C4CC4)ccc23)[nH]c(=O)n1C [Example 18, N-((4bR,9bR)-1-amino-7-((S)-1-cyclopropylethyl)-4b-hydroxy-10-oxo-4b,10-dihydro-9bH-indeno[1,2-b]benzofuran-9b-yl)-1,5-dimethyl-2-oxo-2,3-dihydro-1H-imidazole-4-carboxamide] | 0.05 µM | 0.016 µM | 0.018 µM | – | 1.65 µM | 31.8 µM
Cc1cc(S(=O)(=O)N2CCN(C)CC2)[nH]c1C(=O)N[C@]12C(=O)c3c(N)cccc3[C@@]1(O)Oc1cc([C@H]3C[C@@H]3C)ccc12 [Example 14, N-((4bR,9bR)-1-amino-4b-hydroxy-7-((1S,2S)-2-methylcyclopropyl)-10-oxo-4b,10-dihydro-9bH-indeno[1,2-b]benzofuran-9b-yl)-3-methyl-5-((4-methylpiperazin-1-yl)sulfonyl)-1H-pyrrole-2-carboxamide] | 0.023 µM | 0.03 µM | 0.016 µM | 0.016 µM | 0.516 µM | 21.9 µM
C[C@@H](c1ccc2c(c1)O[C@]1(O)c3cccc(N)c3C(=O)[C@]21NC(=O)CN1CCC1)C1CC1 [Example 17, N-((4bR,9bR)-1-amino-7-((R)-1-cyclopropylethyl)-4b-hydroxy-10-oxo-4b,10-dihydro-9bH-indeno[1,2-b]benzofuran-9b-yl)-2-(azetidin-1-yl)acetamide] | 0.07 µM | 0.018 µM | 0.016 µM | 0.016 µM | 1.36 µM | 24.5 µM
Cc1c(S(C)(=O)=O)c[nH]c1C(=O)NC12C(=O)c3c(N)cccc3C1(O)Oc1cc([C@H]3C[C@H]3C)ccc12 (stereo partly drawn) [Example 27, N-(1-amino-4b-hydroxy-7-((1S,2R)-2-methylcyclopropyl)-10-oxo-4b,10-dihydro-9bH-indeno[1,2-b]benzofuran-9b-yl)-3-methyl-4-(methylsulfonyl)-1H-pyrrole-2-carboxamide] | 0.084 µM | 0.079 µM | 0.02 µM | 0.016 µM | 0.705 µM | 40.4 µM
C[C@H](c1ccc2c(c1)O[C@]1(O)c3cccc(N)c3C(=O)[C@]21NC(=O)CN1CCC1)C1CC1 [Example 5, N-((4bR,9bR)-1-amino-7-((S)-1-cyclopropylethyl)-4b-hydroxy-10-oxo-4b,10-dihydro-9bH-indeno[1,2-b]benzofuran-9b-yl)-2-(azetidin-1-yl)acetamide] | 0.072 µM | 0.039 µM | 0.036 µM | 0.016 µM | 1.35 µM | 19.2 µM
